Reference: patent US7238377B2, “Use of an oil of the gourd family for inhibiting 5 alpha-reductase activity” (Laboratoires Expanscience, priority 2001, dated 2007)
Values joined by “and” are separate entries in the source; they are usually repeats but may differ in a detail not shown here. Identical values can stand only once. Marks after values point to notes of the source that are not given here.

Test system: 5α-reductase
Assay: In vitro evaluation of 5α-reductase activity: conversion of testosterone to 5α-dihydrotestosterone in normal human dermal fibroblast cultures
Assay type: cell-based
Settings: finasteride 30 ng/ml
Source text: In vitro evaluation of the 5α-reductase activity of the balsam pear oil on the conversion of testosterone to 5α-dihydrotestosterone in normal human dermal fibroblast cultures
It is proposed to evaluate the effect of the solid oil (butter) extracted from seeds of balsam pear (Momordica charantia), extracted with solvent (hexane), on 5α-reductase activity. An in vitro model of normal human dermal fibroblast cultures was selected.
The balsam pear oil was provided by the Laboratoires Pharmascience and was stored at +4° C. until the time it was used. The effects of the test product were compared with those obtained in the presence of finasteride, used as reference product (finasteride, principle active agent of the tablets CHIBRO-PROSCAR: MERCK SHARP & DOHME CHIBRET).
The radioactive testosterone (labeled with tritium at positions 1, 2, 6 and 7, specific activity 95 Ci/mmol) was provided by AMERSHAM, the nonradiolabeled testosterone was provided by SIGMA.
The fibroblast culture medium (FCM) consisted of MEM/M199 (3:1, v/v) supplemented with penicillin (50 IU/ml), streptomycin ([…]), sodium bicarbonate (0.2%, w/v) and FCS (10%, v/v).
The test system consisted of normal human dermal fibroblasts cultured in monolayer. The fibroblasts were isolated from a residue of an abdominoplasty carried out on a person (subject No. i0006). The cells were used at the third passage; they were cultured, until the monolayers reached confluency, in the FCM medium at 37° C. in a humid atmosphere containing 5% CO2.
The fibroblast incubation medium (FIM) consisted of FCM supplemented with tritiated testosterone (1.6×10^−7 M, i.e. 6.32 μCi/ml) and nonradiolabeled testosterone (3.84×10^−6 M).
The finasteride was extracted from the tablets by grinding, stirring in DMSO, centrifugation, and then collection of the supernatant (theoretical concentration of this solution: 1 mg/ml of finasteride), which was tested at 30 ng/ml. […]
The migration solvent was a mixture of dichloromethane and ether (7:3, v/v). At the end of migration, the silica plates were read using a BERTHOLD radioactivity scanner.
Comparison of the Rf (relative retention factor) values determined for the standards with those obtained for the various radioactive metabolites made it possible to identify these metabolites.
The metabolization of the testosterone to 5α-dihydro-testosterone under the various experimental conditions was calculated; the results (areas of the 5α-dihydro-testosterone peaks counted by the BERTHOLD scanner) are expressed in pmol of 5α-DHT formed per […]. They have also been expressed as percentage of the 5α-reductase activity present in the “control cells” group. […]

## CC(C)(C)NC(=O)[C@H]1CC[C@H]2[C@@H]3CC[C@H]4NC(=O)C=C[C@]4(C)[C@H]3CC[C@]12C [Finasteride, finasteride]
2 h preincubation, 24 h incubation, triplicate values, control cells 2.68, 1.91, 1.56
  pmol of 5α-DHT/μg of DNA (individual cultures): 0.76 pmol of 5α-DHT/μg of DNA and 0.48 pmol of 5α-DHT/μg of DNA and 0.62 pmol of 5α-DHT/μg of DNA
24 h incubation, control cells = 100
  % control (5α-reductase activity): 30%
24 h incubation, control cells mean 2.05, p<0.05 vs control
  pmol of 5α-DHT/μg of DNA, Mean: 0.62** pmol of 5α-DHT/μg of DNA
p<0.05
  inhibition of the 5α-reductase activity: 70%
